Tests used:
Type in all cases: cell-based, human
[1] = system: γ-secretase; assay: Transiently transfected HEK293 cells (SP3-C55-GAL4/VP16 + pGL2-MRG5 luciferase reporter), luciferase activity; settings: HEK293 transiently co-transfected with SP3-C55-GAL4/VP16 vector and pGL2-MRG5 luciferase reporter vector; read-out: IC50, inhibition of luciferase activity and Aβ-production
Experimental: (§1) HEK293 cells were co-transfected with the SP3-C55-GAL4/VP16 vector (0.03 μg) and the pGL2-MRG5 luciferase reporter vector (1 μg) in Multi-Well 12 plates.
(§2) Luciferase activity was quantified by the Bright-Glo Luciferase Assay kit (Promega). Aβ in the cell medium was quantified by ELISA, using the antibodies 4G8 and 6E10 (from Senetek), as described in Example 11. These antibodies are specific for amino acids 17-24 (4G8) and 1-17 (6E10) of the Aβ-peptide.

[2] = system: γ-secretase; assay: Stably transfected HEK293 cell clone (SP3-C55-GAL4/VP16 + MRG5-luciferase), luciferase activity; settings: stably double-transfected HEK293 clone, 24 h treatment; read-out: IC50, inhibition of luciferase activity
Experimental: HEK293 cells (Human Embryonic Kidney cell line, (ATCC)) were co-transfected with the plasmid SP3-C55-GAL4/VP16 and the luciferase reporter plasmid PGL2-MRG5(described in Example 2).
Subsequently, stable cell lines were selected by incubation with 400 μg/ml Geneticin (GibcoBRL) to select for Neomycin resistant clones and thereafter characterized for stable expression of SP3-C55-GAL4/VP16 and luciferase.
A clone of HEK293 cells that stably express both the SP3-C55-GAL4/VP16 and the MRG5-luciferase constructs was identified according to Example 14.
For the identification of γ-secretase inhibitors, stably double-transfected HEK293 cells (see Example 14) are incubated, in Multi-Well 96 plates, in the presence of the compound(s) under investigation (e.g., compound library screening) at a concentration 10 μM or less in the assay, and luciferase activity is determined 24 hours later. Luciferase activity can be quantified with the Luciferase Assay System kit (Promega), the Bright-Glo Luciferase Assay kit (Promega), or any other method for luciferase quantification. A decrease in luciferase activity reflects a decrease in γ-secretase activity.

[3] = system: γ-secretase; assay: Transiently transfected HEK293 cells, Aβ in the cell medium by ELISA (4G8/6E10); settings: HEK293 transiently co-transfected; Aβ in cell medium quantified by ELISA
Source text: For expression in mammalian cells, the signal peptide in SP2-C-GAL4/VP16-100 was replaced, as described in Example 8, with a mammalian signal peptide derived from the basal membrane protein BM40, which is known for high level expression (SP3; SEQ ID NO. 13). Processing of γ-secretase was monitored by quantifying the secretion of Aβ into the culture medium. The secreted Aβ was detected by a sandwich ELISA using monoclonal antibodies 6E10 and biotinylated 4G8 (Senetek PLC, Napa, Calif., USA; cf. Kim et al., 1990) as capture and detection antibodies, respectively.
as §1, §2

## C[C@H](NC(=O)Cc1cc(F)cc(F)c1)C(=O)N[C@H](C(=O)OC(C)(C)C)c1ccccc1 [DAPT]
[1]
  IC50: 14 nM
[2]
  IC50: 230 nM
[3]
  Aβ-production: inhibited dose-dependently

## CC(C)C[C@H](NC(=O)[C@H](Cc1ccccc1)C[C@@H](O)[C@H](Cc1ccccc1)NC(=O)OC(C)(C)C)C(=O)N[C@@H](Cc1ccccc1)C(N)=O [L-685,458]
[1]
  IC50: 19 nM
[2]
  IC50: 130 nM
[3]
  Aβ-production: inhibited dose-dependently

Reference: US7892778B2, “Method of screening for gamma-secretase activity” (Sanofi-Aventis Deutschland GmbH, priority 2003, dated 2011)
